Our source for the n-fold stimulation values is US6344468B1, “Substituted isoindolones and their use as cyclic GMP modulators in medicaments” (Aventis Pharma Deutschland GmbH, priority 1998, dated 2002).

Each structure is given as a SMILES string.

The target in the assay is T1, soluble guanylate cyclase (sGC) (Bos taurus, UniProt P16068+P19687).
T1 construct: The sGC which was employed had been isolated from bovine lung; from tissue; host or cells: bovine lung
T1 sequence (P16068 1-619): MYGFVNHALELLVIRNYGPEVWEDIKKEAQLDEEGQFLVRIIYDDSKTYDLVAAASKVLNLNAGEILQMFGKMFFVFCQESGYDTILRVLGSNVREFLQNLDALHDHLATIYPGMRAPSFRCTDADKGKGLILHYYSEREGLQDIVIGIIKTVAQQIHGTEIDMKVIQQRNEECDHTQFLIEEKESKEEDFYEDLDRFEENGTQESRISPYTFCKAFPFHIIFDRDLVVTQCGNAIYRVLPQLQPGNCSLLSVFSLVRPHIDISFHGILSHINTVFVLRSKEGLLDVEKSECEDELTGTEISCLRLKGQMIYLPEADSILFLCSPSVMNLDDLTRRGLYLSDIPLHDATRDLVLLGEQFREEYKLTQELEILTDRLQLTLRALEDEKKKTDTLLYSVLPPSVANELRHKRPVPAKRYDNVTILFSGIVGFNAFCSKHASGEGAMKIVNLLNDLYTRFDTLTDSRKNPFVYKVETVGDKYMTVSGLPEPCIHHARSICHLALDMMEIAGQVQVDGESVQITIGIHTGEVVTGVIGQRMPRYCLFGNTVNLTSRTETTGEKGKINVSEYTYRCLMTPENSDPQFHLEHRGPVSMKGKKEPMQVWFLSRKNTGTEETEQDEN
T1 sequence (P19687 1-691): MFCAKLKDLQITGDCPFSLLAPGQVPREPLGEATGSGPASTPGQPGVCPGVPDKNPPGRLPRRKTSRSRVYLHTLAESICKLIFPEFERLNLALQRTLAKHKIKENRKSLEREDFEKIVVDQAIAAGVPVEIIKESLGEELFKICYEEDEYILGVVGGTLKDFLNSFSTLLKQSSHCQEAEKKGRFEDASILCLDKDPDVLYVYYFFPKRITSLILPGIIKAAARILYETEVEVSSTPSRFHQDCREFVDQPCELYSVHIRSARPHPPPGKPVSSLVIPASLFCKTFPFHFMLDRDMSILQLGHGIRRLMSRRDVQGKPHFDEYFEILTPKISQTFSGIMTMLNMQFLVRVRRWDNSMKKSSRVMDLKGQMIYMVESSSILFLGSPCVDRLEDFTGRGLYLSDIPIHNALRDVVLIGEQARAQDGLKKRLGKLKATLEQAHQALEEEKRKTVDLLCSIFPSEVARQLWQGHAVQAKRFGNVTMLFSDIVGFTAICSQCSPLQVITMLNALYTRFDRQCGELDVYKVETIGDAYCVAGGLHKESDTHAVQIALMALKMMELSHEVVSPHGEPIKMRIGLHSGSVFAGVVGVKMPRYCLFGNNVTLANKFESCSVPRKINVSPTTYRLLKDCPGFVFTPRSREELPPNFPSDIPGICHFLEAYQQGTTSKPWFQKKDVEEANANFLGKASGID
Kind of assay: Activation of the soluble guanylate cyclase (cGMP enzyme immunoassay). In kind it is biochemical. The note with it: sGC isolated from bovine lung; concentration 50 μM; n-fold stimulation of basal enzyme activity = [cGMP]test substance/[cGMP]control. The protocol:
The activation of the soluble guanylate cyclase (sGC), which catalyzes the conversion of guanosine triphosphate (GTP) into cyclic guanosine monophosphate (cGMP) and pyrophosphate, by the compounds according to the invention was quantified with the aid of an enzyme immunoassay (EIA) from Amersham. To this end, the substances to be tested were initially incubated with sGC in microtiter plates, and the amount of the cGMP formed was then determined.
The sGC which was employed had been isolated from bovine lung (see Methods in Enzymology, volume 195, p. 377). The test solutions (100 μl per well) contained 50 mM triethanolamine (TEA) buffer (pH 7.5), 3 mM MgCl2, 3 mM reduced glutathione (GSH), 0.1 mM GTP, 1 mM 3-isobutyl-1-methylxanthine (IBMX), suitably diluted enzyme solution and the substance to be tested or, in control experiments, the solvent. The substances to be tested were dissolved in dimethyl sulfoxide (DMSO) and the solution was diluted with DMSO/water, so that the final concentration of the substance to be tested in the test mixture was 50 μM. The DMSO concentration in the test mixture was 5% (v/v). The reaction was initiated by addition of the sGC. The reaction mixture was incubated at 37° C. for 15 to 20 minutes and the reaction was then stopped by ice-cooling and addition of the stop reagent (50 mM EDTA, pH 8.0). An aliquot of 50 μl was taken and used for determining the cGMP content using the acetylation protocol of the Amersham cGMP-EIA kit. The absorption of the samples was measured at 450 nm (reference wavelength 620 nm) in a microtiter plate reader. The cGMP concentration was determined using a standard curve which was obtained under the same test conditions. The activation of sGC by a test substance is reported as the n-fold stimulation of the basal enzyme activity which was found in the control experiments (using solvent instead of test substance) (calculated using the formula
n-fold stimulation=[cGMP]test substance/[cGMP]control).
For the compound `OCc1ccc(-c2nn(Cc3ccccc3)c3ccccc23)o1` [A, 1-benzyl-3-(5-hydroxymethyl-2-furyl)-indazole, reference compound], the n-fold stimulation is 2-fold.
Regarding `COc1cccc(CCN2C(=O)c3ccccc3C2(O)c2ccc(F)cc2)c1` (stereo not shown) [Example 17, 3-(4-Fluorophenyl)-3-hydroxy-2-(2-(3-methoxyphenyl)ethyl)-2,3-dihydro-isoindol-1-one], the n-fold stimulation is listed as 16-fold.
In the case of `COc1cccc(CCN2C(=O)c3ccccc3C2(O)c2ccncc2)c1` (stereo not shown) [Example 29, 3-Hydroxy-2-(2-(3-methoxyphenyl)ethyl)-3-(4pyridyl)-2,3-dihydroisoindol-1-one] it was 11.8-fold; in that of `COc1cccc(CCN2C(=O)c3c(F)c(F)c(F)c(F)c3C2(O)c2ccc(F)cc2)c1` (stereo not shown) [Example 33, 4,5,6,7-Tetrafluoro-3-(4-fluorophenyl)-3-hydroxy-2-(2-(3-methoxyphenyl)-ethyl)-2,3-dihydroisoindol-1-one], 9.5-fold.
